Test results taken from patent publication US12391751B2, “Antibody against advanced glycation end products and use thereof” (Bloom Technology Corporation, priority 2018, dated 2025).

Tests used:
[1] = tested on: POD-labeled novel monoclonal antibody (SJ-5); assay: Competitive ELISA of GAL691 and Lys-hydroxy-triosidine against SJ-5 (Example 18); assay type: binding, mouse; details: immobilized Glycer-AGEs-BSA; competitor 0.625 to 10 mg/mL
Procedure: A solution of BSA containing AGEs derived from glyceraldehyde (stock solution: 10 mg/mL PBS solution) prepared into 1 μg/mL in a coating solution was added at 100 μL/well to a 96-well microtiter plate (COSTAR) and incubated overnight at 4° C.
(§1) Each well after the immobilization treatment was washed three times with a washing solution (300 μL), and a blocking solution (200 μL) was added thereto and left at room temperature for 1 hour.
GAL691 (prepared in Example 16) and Lys-hydroxy-triosidine (prepared in Example 17) were each dissolved in a phosphate buffer solution (0.2 M, pH 7.4) to prepare a 10 mg/mL solution. Sample solutions of 2-fold dilution series from 0.625 to 10 mg/ml (5 points) were further prepared by dilution with a diluting solution. Dilution solutions were also prepared from a blank solution containing no sample in the same way as above. […]
(§2) Absorbance was measured at a dominant wavelength of 450 nm and a sub-wavelength of 650 nm with a microplate reader (Cytation 5, BioTek Instrument Inc.), and the absorbance at the sub-wavelength was subtracted from the absorbance at the dominant wavelength. Change in the absorbance of GAL691 and Lys-hydroxy-triosidine was indicated as relative values to the absorbance of the blank solution.

PB-1 antibody = assay: Competitive ELISA of GAL691 and known AGEs against PB-1 (Example 31); assay type: binding, mouse; details: immobilized A-peak-BSA; competitor 0.04 to 2.5 mM; PB-1 0.1 μg/mL
Procedure: Competitive ELISA was conducted using the reagents described in Example 13. A solution of A-peak-BSA prepared into 1 μg/mL in a coating solution was added at 100 μL/well to a 96-well microtiter plate (Costar) and incubated overnight at 4° C.
as §1
GAL691 (prepared in Example 16), GLAP (prepared in Example 12), Lys-hydroxy-triosidine (prepared in Example 17), GA-pyridine (prepared in Example 28), GOLD (prepared in Example 29), and Z-Lys were each dissolved in a phosphate buffer solution (0.2 M, pH 7.4) to prepare a 100 mM solution. Then, a 10 mM solution was prepared by dilution 10-fold with a diluting solution containing BSA (1 mg/mL, FUJIFILM Wako Pure Chemical Corp.). Sample solutions of 4-fold dilution series of 0.04, 0.16, 0.63, and 2.5 mM were further prepared with a diluting solution containing a 10% (v/v) phosphate buffer solution and 1 mg/mL BSA. Ten-fold dilutions of a phosphate buffer solution with a diluting solution containing 1 mg/mL BSA were prepared as blank solutions containing no sample in the same way as above. A 0.1 μg/mL solution of the PB-1 antibody was prepared with a diluting solution containing 1 mg/mL BSA.
Each well treated with the blocking solution was washed three times with a washing solution (300 μL), and the sample solutions of 4-fold dilution series (50 μL each) and the PB-1 antibody dilution solution (50 μL) were added thereto, stirred with a plate mixer for 2 minutes, and then incubated at room temperature for 1 hour.
After the competitive reaction, each well was washed three times with a washing solution (300 μL), and peroxidase-labeled anti-mouse IgG (H+L) polyclonal antibody, F(ab′)2 fragment (Kirkegaard & Perry Laboratories, Inc.) diluted into 0.05 μg/mL with a diluting solution containing 1 mg/mL BSA was added at 100 μL/well and left standing at room temperature for 1 hour.
After washing three times with a washing solution (300 μL), a substrate solution (ELISA POD substrate TMB kit (Popular), Nacalai Tesque, Inc.) was added at 100 μL/well and incubated at room temperature for 10 minutes under light shielding. Then, color development was terminated by the addition of 2 N sulfuric acid (50 μL).
as §2, with “GAL691, GLAP, Lys-hydroxy-triosidine, GA-pyridine, GOLD,” for “GAL691”, “Z-Lys” for “Lys-hydroxy-triosidine”

[2] = Formation of singlet oxygen through photosensitizing effect, ESR with 4-OH-TEMP (Examples 21, 22); details: astaxanthin final concentration 2.5 mM; blue light
Procedure: 25 μL of GAL691 or Z-Lys(Z)-OH (10 mM, PBS solution), 12.5 μL of 4-hydroxy-2,2,6,6-tetramethylpiperidine (4-OH-TEMP; Tokyo Chemical Industry Co., Ltd., 400 mM, PBS solution), and 12.5 μL of PBS were mixed in a 0.6 mL microtube (Watson) to prepare a reaction solution. 4-OH-TEMP changes into a nitroxide radical by capturing singlet oxygen and is therefore often utilized in the detection of singlet oxygen using ESR (Nakamura et al., J. Clin. Biochem. Nutr., 2011, 49 (2), 87-95). The reaction solution was irradiated with light at UV 365 nm, blue 470 nm, green 530 nm, or red 630 nm for 1 hour using a portable LED light source (MeCan Imaging Inc.). Then, ESR measurement was performed using a portion (50 μL) of each reaction solution. The ESR measurement was carried out under the same conditions as in Example 10 except for some parameters. The changed measurement parameters are as follows: […]
In order to quantify the concentration of the formed nitroxide radical, the following analysis was conducted: the spectrum of the observed nitroxide radical was first simulated with SpinFit module in Xepr software (Bruker Corp.) to identify a radical species (g=2.0058, I=1, AN=17.05 G). Then, the spin concentration (μM) of the simulated nitroxide radical was determined with SpinCount module. […]

| Compound | change in absorbance relative to blank (competition for SJ-5 binding) [1] | change in absorbance relative to blank (competition for PB-1 binding) (PB-1 antibody) | capture of singlet oxygen generated by GAL691 and light irradiation [2] |
| --- | --- | --- | --- |
| CC(=O)NC(CCCCNCc1cc(O)c[n+](CCCCC(NC(C)=O)C(=O)O)c1)C(=O)O (stereo not drawn) [Lys-hydroxy-triosidine] | no reduction in absorbance was observed | no reduction in absorbance was observed |  |
| CC1=C(/C=C/C(C)=C/C=C/C(C)=C/C=C/C=C(C)/C=C/C=C(C)/C=C/C2=C(C)C(=O)[C@@H](O)CC2(C)C)C(C)(C)C[C@H](O)C1=O [astaxanthin] |  |  | captured |
